Ends that are not written are not given here.
How the values were obtained:
[1] = tested on: peripheral blood lymphocytes (PBL) of RA/JCA patients; test: 6-days proliferation assay on PBLs of RA and JCA patients; format: cell-based, human; settings: number of patients with PBL proliferation >2 times background; 15-mers at 1 μg/ml and 10 μ/ml
Method: T-cell responses to the selected peptides in patients are analysed by studying T-cell proliferation of peripheral blood lymphocytes (PBL) and synovial fluid derived cells. […] In these human studies the peptides are tested as 15-mers containing the 9-mer sequence of Table 2 as core sequence. […] This is further strengthened by the fact that, the patients were not selected for having a certain MHC haplotype. The MHC binding affinity of the selected peptides is analysed for the most-common MHC class II-arthritis associations. In Table 3 the peptide binding affinity for DRB1*0401 is shown as an example. The peptide binding affinity is tested in a MHC-peptide competition assay on isolated MHC molecules in the presence of a labelled marker peptide. The fact that of the n=12 peptides selected for binding to the rat DQ equivalent RT1.B^1, n=11 peptides also bind DRB1*0401, further confirms the promiscuous MHC binding of the selected peptides. This ensures a wide applicability of the peptides for prophylaxis, treatment, monitoring and/or diagnosis of the disease.
^ Indicated are the numbers of patients responding to tire peptides as defined in a 6-days proliferation assay on PBLs. Responses were considered positive if the proliferation (as measured by ^3H-thymidine incorporation) was >2 times background proliferation. Peptides were tested in concentrations of 1 μg/ml and 10 μ/ml.

[2] = target: DRB1*0401 (Homo sapiens, UniProt P01903+P01911, A100K/A169T/F76Y/I96L/K127E/L162R/M171V/N62H/P40V/Q125Y/R42H/S133A/S149N/S66Y/V115G/V209L/W38E); test: MHC-peptide competition binding assay on isolated DRB1*0401 molecules; settings: DRB1*0401 1 μM, biotinylated HA-marker peptide 100 nM, peptide 0-256 μM; read-out: DRB1*0401 binding (IC50)
Method: T-cell responses to the selected peptides in patients are analysed by studying T-cell proliferation of peripheral blood lymphocytes (PBL) and synovial fluid derived cells. […] In these human studies the peptides are tested as 15-mers containing the 9-mer sequence of Table 2 as core sequence. […] The MHC binding affinity of the selected peptides is analysed for the most-common MHC class II-arthritis associations. […] The peptide binding affinity is tested in a MHC-peptide competition assay on isolated MHC molecules in the presence of a labelled marker peptide.
# MHC-peptide binding was measured as described in Wauben et al., Int. Immunol. […] Peptide binding is expressed as tire IC50.

[3] = tested on: DTH reaction; test: Delayed type hypersensitivity reaction after peptide/DDA immunisation; format: in vivo, rats; settings: challenge day 72, peptide/saline s.c. in ear; measured 24 and 48 hr
Method: # DTH (Delayed type hypersensitivity) reactions are induced at day 72 after immunisation of peptide/DDA, by subcutaneous injection of the peptide/saline in the ear. DTH are measured 24 and 48 hr after challenge.

[4] = tested on: arthritis; test: Arthritis induction by immunisation with peptide in DDA adjuvant; format: in vivo; settings: rats with clinical arthritis/rats immunised; 50 μg peptide in 100 μl DDA, one hind footpad
Method: To check the arthritogenic potential of the selected peptides, rats are immunised with 50 μg peptide in 100 μl DDA adjuvant in one hind footpad. […] Two of the five peptides show defined clinical arthritis. * Arthritis is induced by Immunisation of 50 μg peptide in 100 μl DDA adjuvants in one hind footpad and scored upon clinical examination.

[5] = tested on: T cells from inguinal and popliteal lymph nodes and spleen; test: T-cell recognition (proliferation) during adjuvant arthritis time course; format: cell-based, Lewis rats; settings: positive: proliferation more than 1.5 times background in more than 25% of organs; days 14, 19, 21, 32, 39
[6] = tested on: T cell clone A2b; test: Recognition by A2b T-cell clone: proliferation and/or activation marker expression; format: cell-based, Lewis rats; settings: positive: proliferation more than 2 times background in 2 of 4 experiments and/or activation marker upregulation in 2 of 3 experiments
Method: As an immediate read-out for mimicry peptides T-cell activation is measured by proliferation, TcR downregulation, expression of activation markers, and cytokines responses of clone A2b. In addition A2b-like T cells from arthritic rats are isolated, and activation of such cells is measured by, proliferation, TcR downregulation, expression of activation markers, and cytokines responses. Furthermore, T-cell lines are generated after immunisation with MT/IFA or selected peptides/DDA. The cross-reactive nature of the peptide specific T-cell responses is analysed in vitro by determining the recognition of both the self peptide as well as the mycobacterial hsp65 178-186 peptide. After testing the panel of n=65 peptides for induction of proliferation of T cell clone A2b, and/or induction of expression of activation markers, n=20 peptides (SEQ ID NOs: 15, 19, 20, 21, 22, 23, 24, 26, 30, 31, 32, 33, 35, 49, 51, 61, 63, 65, 67, 69) were considered positive. Criteria for positivity were that in 2 out of 4 experiments the induced proliferation was more than 2 times background proliferation as measured by ^3H-thymidine incorporation, and/or that in 2 out of 3 experiments upregulation of an activation marker was detectable by FACS analysis.

[7] = tested on: adjuvant arthritis; test: Nasal peptide administration in the adjuvant arthritis model; format: in vivo, rats; settings: for Day of onset / Arthritis score: 100 μg peptide nasal at days 0, 3, 7, 11, mean±sd, n=4 rats; for Arthritis score: scale 0-16
Method: The potential arthritis protective qualities of selected peptides/proteins are tested through nasal or oral tolerance induction in the adjuvant arthritis model.
* Adjuvant arthritis is induced at day 0 by immunisation of MT/IFA (5 mg/ml MT) at the base of the tail. At days 0, 3, 7 and 11, 100 μg peptide in 10 μl saline is administered in the nostrils. Arthritis is scored upon clinical examination on a scale from 0-16. Data are expressed as mean±sd (n=4 rats/group).

[8] = target: T1, MHC class II RT1.B^L (Rattus norvegicus, UniProt P20037+P29826); test: MHC-peptide competition binding assay on isolated RT1.B^L molecules; parameters: species or system Lewis rat
T1 sequence (P20037 24-256): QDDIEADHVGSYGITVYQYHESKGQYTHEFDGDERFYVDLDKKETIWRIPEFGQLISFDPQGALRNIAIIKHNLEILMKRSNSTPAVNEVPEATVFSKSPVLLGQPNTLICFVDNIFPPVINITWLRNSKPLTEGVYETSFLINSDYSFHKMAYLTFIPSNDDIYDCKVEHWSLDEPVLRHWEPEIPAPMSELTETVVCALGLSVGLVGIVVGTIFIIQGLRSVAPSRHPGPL
T1 sequence (P29826 28-263): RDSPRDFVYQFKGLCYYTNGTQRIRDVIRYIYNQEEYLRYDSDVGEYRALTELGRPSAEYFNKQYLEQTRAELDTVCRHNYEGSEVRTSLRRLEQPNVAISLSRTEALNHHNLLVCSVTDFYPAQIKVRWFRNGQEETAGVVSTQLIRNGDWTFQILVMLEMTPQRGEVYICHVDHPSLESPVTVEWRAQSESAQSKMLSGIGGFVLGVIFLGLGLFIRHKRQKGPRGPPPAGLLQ
From the text: Because the rat self-antigen to which the A2b T-clone is reactive is not known at present time, the present inventors have designed a computer search strategy based on the interactions of the mycobacterial hsp65 178-186 peptide within the trimolecular complex of MHC class II (RT1.B^L)-mycobacterial hsp65 178-186-T-cell receptor of clone A2b, to identify relevant candidate arthritis-associated antigens that can serve as target for autoimmune T-cell mediated tissue destruction in arthritis. Within the mycobacterial hsp65 178-186 sequence, residues involved in MHC binding have been identified by using an MHC-peptide binding assay on isolated MHC class II RT1.B^L proteins. The residues which have an important role in determining the RT1.B^L binding affinity of the mycobacterial hsp65 178-186 peptide, the so-called MHC anchor residues were determined. By studying the MHC-peptide binding affinities of other non-related peptides, a general MHC-peptide binding motif for the Lewis rat RT1.B1 molecule was defined (Wauben et al., Int. Immunol. 9:281 (1997)). For the definition of residues within the minimal core sequence mycobacterial hsp65 180-186, interacting with the T-cell receptor of the A2b T cell clone, the results derived from MHC-peptide binding assays, and proliferation assays of the A2b T cell clone were integrated.
#RT1.B^L binding affinity is expressed as 50%ID (=inhibitory dose). The 50%ID value indicates the concentration of peptide needed to inhibit 50% binding of the marker peptide in a competition assay on isolated RT1.B^L molecules.

Sequence: FFYFFTGSSQLEFDP [SEQ ID NO: 70, FFYFFTGSSQLEFDP]
- JCA patients responding (n = 6 tested) [1]: 2
- RA patients responding (n = 39 tested) [1]: 29^
- IC50 [2]: < 8 µM

Sequence: VQTAVTNID (listed as Rattus sp.) [SEQ ID NO: 53]
- DTH reaction [3]: 2/2
- Arthritis Induction [4]: 0/4
- T-cell recognition during adjuvant arthritis [5]: positive

Sequence: SAFWPSLPSYLDAAY [SEQ ID NO: 71, SAFWPSLPSYLDAAY]
- RA patients responding (n = 39 tested) [1]: 4
- IC50 [2]: 8 to 16 µM

Sequence: VSSFSLNVE (listed as Rattus sp.) [SEQ ID NO: 26]
- DTH reaction [3]: 2/2
- Arthritis Induction [4]: 0/4
- Recognition by T cell clone A2b [6]: positive
- Day of onset [7]: 13.0 ± 0
- Arthritis score [7]: 11.0 ± 3.5

Sequence: AFGLQLELT [SEQ ID NO: 4, AFGLQLELT]
- IC50 [8]: 64 to 128 µM

Sequence: TFGAQLELT [SEQ ID NO: 7, TFGAQLELT]
- IC50 [8]: 8 to 16 µM

Sequence: TFGLQLEAT [SEQ ID NO: 11, TFGLQLEAT]
- IC50 [8]: 32 to 64 µM

Sequence: WPSLPSNMD (listed as Rattus sp.) [SEQ ID NO: 48]
- DTH reaction [3]: 0/2
- Arthritis Induction [4]: 1/4
- Day of onset [7]: 13.3 ± 1.0
- Arthritis score [7]: 10.5 ± 1.7

Sequence: SSFWPSLPSGVDAAY [SEQ ID NO: 73, SSFWPSLPSGVDAAY]
- RA patients responding (n = 39 tested) [1]: 4
- IC50 [2]: 16 to 32 µM

Sequence: TFGLQLELT [SEQ ID NO: 3, TFGLQLELT, reference compound]
- IC50 [8]: 32 to 64 µM

Sequence: WPSLPSGLD (listed as Rattus sp.) [SEQ ID NO: 50]
- DTH reaction [3]: 0/2
- Arthritis Induction [4]: 2/4
- Day of onset [7]: 14.3 ± 2.0
- Arthritis score [7]: 11.3 ± 3.8
- T-cell recognition during adjuvant arthritis [5]: positive

Sequence: TFGLQLELA [SEQ ID NO: 12, TFGLQLELA]
- IC50 [8]: 32 to 64 µM

Sequence: LKSVNGQIE (listed as Rattus sp.) [SEQ ID NO: 15]
- DTH reaction [3]: 2/2
- Arthritis Induction [4]: 0/4
- Recognition by T cell clone A2b [6]: positive
- Day of onset [7]: 15.0 ± 1.7
- Protective effect in adjuvant arthritis upon nasal administration ([7]; in words): protective effect
- Arthritis score [7]: 4.3 ± 4.8

Sequence: NAMLKSICEVLDLER [SEQ ID NO: 81, NAMLKSICEVLDLER]
- JCA patients responding (n = 6 tested) [1]: 1
- RA patients responding (n = 39 tested) [1]: 2
- IC50 [2]: > 256 µM

— patent publication US6673770B1, “Peptides for the treatment, prophylaxis, diagnosis and monitoring of autoimmune diseases” (Upither B.V., priority 1998, dated 2004)
